Experiment: xn = mol fraction of the nth substance listed
Settings: 101 kPa

CC[N+](C)(CC)CCOC.O=S(=O)([N-]S(=O)(=O)C(F)(F)F)C(F)(F)F + O=C1CCCO1
Settings | electrical conductivity [S/m] | viscosity [mPa·s]
288.15 K, x1 = 0.3003 | 0.818 | 14.42
288.15 K, x1 = 0.4007 | 0.638 | 21.86
288.15 K, x1 = 0.6999 | 0.342 | 87.8
288.15 K, x1 = 0.8001 | 0.271 | 118.2
288.15 K, x1 = 0.9003 | 0.189 | 159.3
288.15 K, x1 = 1 | 0.147 | 225
293.15 K, x1 = 0.2006 | 1.16 | 7.44
293.15 K, x1 = 0.4007 | 0.737 | 18.34
293.15 K, x1 = 0.6002 | 0.508 | 49.4
293.15 K, x1 = 0.6999 | 0.429 | 67.7
293.15 K, x1 = 0.8001 | 0.336 | 90
293.15 K, x1 = 0.9003 | 0.246 | 118.6
298.15 K, x1 = 0.2006 | 1.29 | 6.32
298.15 K, x1 = 0.3003 | 1.03 | 10.43
298.15 K, x1 = 0.4998 | 0.688 | 24.17
298.15 K, x1 = 0.6002 | 0.595 | 37.96
298.15 K, x1 = 0.6999 | 0.504 | 51.5
298.15 K, x1 = 0.8001 | 0.413 | 68.2
298.15 K, x1 = 0.9003 | 0.31 | 88.5
298.15 K, x1 = 1 | 0.24 | 119.2
303.15 K, x1 = 0.1004 | 1.41 | 2.972
303.15 K, x1 = 0.2006 | 1.45 | 5.4
303.15 K, x1 = 0.3003 | 1.16 | 8.87
303.15 K, x1 = 0.4007 | 0.956 | 12.54
303.15 K, x1 = 0.4998 | 0.791 | 19.36
303.15 K, x1 = 0.6002 | 0.688 | 29.46
303.15 K, x1 = 0.8001 | 0.488 | 51.5
303.15 K, x1 = 0.9003 | 0.382 | 67.4
308.15 K, x1 = 0.1004 | 1.52 | 2.401
308.15 K, x1 = 0.2006 | 1.59 | 4.634
308.15 K, x1 = 0.6002 | 0.786 | 23.31
308.15 K, x1 = 0.6999 | 0.693 | 30.64
308.15 K, x1 = 0.8001 | 0.576 | 39.71
308.15 K, x1 = 1 | 0.365 | 67.7
313.15 K, x1 = 0.3003 | 1.43 | 6.47
313.15 K, x1 = 0.4007 | 1.21 | 8.94
313.15 K, x1 = 0.4998 | 1.02 | 12.56
313.15 K, x1 = 0.6002 | 0.898 | 18.36
313.15 K, x1 = 0.6999 | 0.805 | 24.16
313.15 K, x1 = 0.9003 | 0.545 | 39.51
313.15 K, x1 = 1 | 0.44 | 53
318.15 K, x1 = 0.1004 | 1.77 | 1.55
318.15 K, x1 = 0.2006 | 1.92 | 3.357
318.15 K, x1 = 0.3003 | 1.57 | 5.5
318.15 K, x1 = 0.4007 | 1.35 | 7.5
318.15 K, x1 = 0.4998 | 1.15 | 10.47
318.15 K, x1 = 0.6999 | 0.916 | 19.03
318.15 K, x1 = 0.8001 | 0.782 | 24.04
318.15 K, x1 = 0.9003 | 0.645 | 30.79
318.15 K, x1 = 1 | 0.521 | 40.98
323.15 K, x1 = 0.1004 | 1.89 | 1.264
323.15 K, x1 = 0.3003 | 1.72 | 4.76
323.15 K, x1 = 0.6999 | 1.03 | 14.91
323.15 K, x1 = 0.8001 | 0.888 | 18.65
323.15 K, x1 = 0.9003 | 0.739 | 24.72
323.15 K, x1 = 1 | 0.609 | 33.06
328.15 K, x1 = 0.1004 | 2.02 | 1.025
328.15 K, x1 = 0.2006 | 2.22 | 2.567
328.15 K, x1 = 0.3003 | 1.88 | 4.154
328.15 K, x1 = 0.4007 | 1.64 | 5.51
328.15 K, x1 = 0.4998 | 1.44 | 7.25
328.15 K, x1 = 0.6999 | 1.15 | 11.99
328.15 K, x1 = 0.8001 | 1 | 14.94
328.15 K, x1 = 0.9003 | 0.844 | 19.43
333.15 K, x1 = 0.1004 | 2.15 | 0.838
333.15 K, x1 = 0.2006 | 2.38 | 2.237
333.15 K, x1 = 0.3003 | 2.07 | 3.578
333.15 K, x1 = 0.4998 | 1.59 | 6.07
333.15 K, x1 = 0.6002 | 1.42 | 7.65
333.15 K, x1 = 0.6999 | 1.29 | 9.72
333.15 K, x1 = 0.8001 | 1.12 | 11.69
333.15 K, x1 = 0.9003 | 0.956 | 16.5
338.15 K, x1 = 0.1004 | 2.27 | 0.686
338.15 K, x1 = 0.2006 | 2.56 | 1.957
338.15 K, x1 = 0.3003 | 2.24 | 3.117
338.15 K, x1 = 0.4007 | 1.99 | 4.059
338.15 K, x1 = 0.4998 | 1.75 | 5.21
338.15 K, x1 = 0.6002 | 1.56 | 6.3
338.15 K, x1 = 0.6999 | 1.41 | 7.76
338.15 K, x1 = 0.8001 | 1.24 | 9.36
338.15 K, x1 = 0.9003 | 1.07 | 13.36
338.15 K, x1 = 1 | 0.935 | 17.49
343.15 K, x1 = 0.1004 | 2.41 | 0.558
343.15 K, x1 = 0.2006 | 2.74 | 1.718
343.15 K, x1 = 0.4007 | 2.17 | 3.53
343.15 K, x1 = 0.6002 | 1.72 | 4.94
343.15 K, x1 = 0.6999 | 1.54 | 6.16
343.15 K, x1 = 0.8001 | 1.37 | 7.56
343.15 K, x1 = 0.9003 | 1.2 | 10.95
343.15 K, x1 = 1 | 1.05 | 14.91
348.15 K, x1 = 0.1004 | 2.56 | 0.458
348.15 K, x1 = 0.2006 | 2.91 | 1.517
348.15 K, x1 = 0.3003 | 2.63 | 2.346
348.15 K, x1 = 0.4998 | 2.12 | 3.777
348.15 K, x1 = 0.6002 | 1.88 | 4.265
348.15 K, x1 = 0.8001 | 1.5 | 6.13
348.15 K, x1 = 1 | 1.18 | 12.3
353.15 K, x1 = 0.1004 | 2.7 | 0.392
353.15 K, x1 = 0.4007 | 2.55 | 2.74
353.15 K, x1 = 0.4998 | 2.3 | 3.376
353.15 K, x1 = 0.6999 | 1.84 | 4.04
353.15 K, x1 = 0.8001 | 1.64 | 4.81
353.15 K, x1 = 1 | 1.31 | 10.28
